Laboratory results from patent US4265901A, “2-Oxybenzimidazoline compounds” (priority 1979, dated 1981).
Structures can show the parent of a compound that is named as a salt.

Tests used:
adult housefly [1] = assay: Efficacy against adult housefly, calves intravenous injection (Example 17); assay type: in vivo, Musca domestica; conditions: daily i.v. 0.5 to 1.5 mg/kg escalating, day per line
Description: (§1) For the adult housefly test, 10 ml. of serum were employed to saturate a wick which was placed in a petri dish. Twenty-five chilled houseflies were placed in the dish which was then incubated for 24 hours at 27° C. and 50% relative humidity. After the end of the twenty-four hours, the efficacy of the candidate compound was determined as the percent mortality of housefly, adjusted as for blowfly by normal mortality in a control and reported according to the same scale as above.
A group of three calves each weighing about 220 kilograms was employed. The compound of Example 2, 2-hydroxy-2-(1,1,2,2-tetrafluoroethyl)-4-nitro-6-(trifluoromethyl)benzimidazoline, sodium salt, was dissolved in distilled water and the resulting solution was administered by intravenous injection. Rates of administration increased throughout the evaluation period, from 0.5 to 1.5 mg./kg. of body weight, with each dose supplied for a period of 5 days (except the 1.5 mg./kg. dose, which was administered for 6 days).
(§2) On each day of the evaluation, immediately preceding that day's injection, a sample of blood was withdrawn from each calf. The concentration of the compound in the blood was determined; and the efficacy of the compound against adult housefly and blowfly larvae was assayed by the method described in Example 15. […]

blowfly larvae [2] = assay: Efficacy against blowfly larvae, calves intravenous injection (Example 17); assay type: in vivo, Phormia regina; conditions: daily i.v. 0.5 to 1.5 mg/kg escalating, day per line
Description: (§3) Representative compounds of the present invention were evaluated against larvae of blowfly (Phormia regina) and against adult housefly (Musca domestica). In these evaluations, the candidate compound was administered to each of two male guinea pigs weighing from about 400 grams to about 1000 grams. Administration was via the intraperitoneal route, the compound having been formulated in sesame oil. At twenty-four hours following administration of the compound, blood was withdrawn from the guinea pigs. The serum portion was isolated and blowfly larvae and adult houseflies were fed on the serum. For the blowfly assay, 10 ml. of serum were placed in a test tube with a wick onto which 50 blowfly larvae were placed. The covered test tube was incubated at 27° C. for 24 hours, at which time efficacy of the candidate compound was determined as the percent mortality of the blowfly larvae, adjusted by normal mortality in a control, and reported according to the following rating scale:
A group of three calves each weighing about 220 kilograms was employed. […]
as §2

adult housefly [3] = assay: Efficacy against adult housefly, calves jugular infusion (Example 18); assay type: in vivo, Musca domestica; conditions: Evaluation I, calf 988, jugular infusion 0.66 mg/kg/day to day 10; day/hours per line
Description: as §1
as §2, with “15. Efficacy was reported, however, as the percent of blowfly larvae or adult housefly which was killed.” for “15.”
Three evaluations were conducted sequentially with the compound of Example 2, 2-hydroxy-2-(1,1,2,2-tetrafluoroethyl)-4-nitro-6-(trifluoromethyl)benzimidazoline, sodium salt, administered daily to calves by jugular infusion of a solution of the compound in distilled water. As described in the preceding example, blood samples were withdrawn and analyzed for concentration of the compound and efficacy against adult housefly and blowfly larvae.

blowfly larvae [4] = assay: Blowfly larvae fed on serum of dosed guinea pigs; assay type: in vivo, Phormia regina; conditions: guinea pig, serum at 24 hours
Description: as §3
(§4) Percent mortality was determined separately for each guinea pig.

adult housefly [5] = assay: Adult houseflies fed on serum of dosed guinea pigs; assay type: in vivo, Musca domestica; conditions: guinea pig, serum at 24 hours
Description: as §3, §4, §1

With `O=[N+]([O-])c1cc(C(F)(F)F)cc2c1NC(O)(C(F)(F)C(F)F)N2` (stereo not drawn) [Example 2, 2-Hydroxy-2-(1,1,2,2-Tetrafluoroethyl)-4-Nitro-6-(Trifluoromethyl)Benzimidazoline, Sodium Salt, and Hydrate] as the molecule, how does the “% Efficacy, Adult Housefly” value (adult housefly [1]; calf 987) read?
The value was 100%.

What about the “% Efficacy, Adult Housefly” value (adult housefly [1]; calf 991) of the same molecule?
The value was 100%.

And the “% Efficacy, Blowfly Larvae” value (blowfly larvae [2]; calf 986)?
Its value is 100%.

What about the “% Efficacy, Blowfly Larvae” value (blowfly larvae [2]; calf 991) of the same molecule?
Its value is 100%.

And the “% Efficacy, Adult Housefly” value (adult housefly [3])?
Its value is 100%.

What does the source list for `O=[N+]([O-])c1cc(Cl)cc2c1NC(O)(C(F)F)N2` (stereo not drawn) [Example 5, 2-Hydroxy-2-(Difluoromethyl)-4-Nitro-6-Chlorobenzimidazoline, Calcium Salt]?
Efficacy Rating, Blowfly Larvae (blowfly larvae [4]; 1 mg./kg. i.p.): 0 (none dead); Efficacy Rating, Blowfly Larvae (blowfly larvae [4]; 5 mg./kg. i.p.): 0 (none dead); Efficacy Rating, Adult Housefly (adult housefly [5]; 1 mg./kg. i.p.): 1 (<50% dead); Efficacy Rating, Adult Housefly (adult housefly [5]; 5 mg./kg. i.p.): 1 (<50% dead)
